{"source": "patent EP2119434A1", "about": "“Use of heterosidic flavonoid derivatives for therapy of stem cell cancers” (INSTITUT NATIONAL DE LA SANTE ET DE LA RECHERCHE MEDICALE …, priority 2008, dated 2009)", "data": [{"tested_on": "U937", "assay": "Adhesion and cytotoxic assay (CAM-DR protocol, fibronectin), cell viability", "type": "cell-based", "details": "in vitro, adherent U937 (not shown)", "description": "Fresh AML cells were obtained from bone marrow of patients upon informed consent, using Ficoll-Hypaque density-gradient centrifugation. […] For in vitro experiments, blasts were resuspended in IMDM. All patients were diagnosed according to WHO classification at the Hematology Department of Toulouse University Hospital (France). Normal bone marrow CD34+ and CD34- hematopoietic cells were harvested from healthy volunteers upon informed consent and obtained after positive selection of CD34-expressing cells by the means of immunomagnetic separation column (Miltenyi Biotech, Bergisch Gladbach, Germany). Fresh blood samples were collected from healthy adult donors and PBMC (Peripheral Blood Mononuclear Cells) were prepared on a Ficoll-Paque density gradient by centrifugation (800 g, 30 min at room temperature).\nAdhesion assays were performed in 96-well plates coated overnight at 4°C with 40 µg/mL of human fibronectin (Roche Molecular Biochemicals, Mannheim, Germany) in a final volume of 50 µL in PBS. Each well was blocked with 1% fatty acid-free BSA in PBS, 1 h at room temperature and washed with PBS before seeding the cells. Cells were diluted at 3x10^5/mL overnight and then were serum starved for 1 h at 1x10^6/mL, incubated or not with plant extract/fraction and purified alkaloid or flavonoid compounds. Control assays were treated with corresponding solvents (water, water/ethanol, DMSO) at a 1/100 dilution. Cells were then allowed to adhere on fibronectin (10^5 cells/well) for 1 h at 37°C or maintained in suspension. In some experiments, both cells in suspension and adherent were treated with 0.5 µM daunorubicin (DNR) (Laboratoire Roger Bellon, Neuilly-sur-Seine, France) for 1 h at 37°C. At the end of the incubation period, cells were washed and incubated in serum containing medium for 24 h at 37°C. Cell viability was then quantified by methyl thiazolyl tetrazolium (MTT) assay (Sigma) or by the Annexin V-FITC detection kit from BD PharMingen. Experiments were performed in triplicate and results were evaluated as the percentage of surviving cells compared to the control group.\nAqueous extracts were prepared from dried H. scoparia leaves and serial dilutions were assayed for cytotoxicity over leukemic cells either in suspension or in adhesion following CAM-DR protocol.", "values": [{"compound": "COc1cc(O)c2c(=O)c(O)c(-c3ccc(O)c(O)c3)oc2c1", "note": "[rhamnetin]", "specific proapoptotic effect on adherent U937 cells": "none of these compounds displayed a specific proapoptotic effect"}, {"compound": "NCCc1c[nH]c2ccccc12", "note": "[tryptamine]", "specific proapoptotic effect on adherent U937 cells": "none of these compounds displayed a specific proapoptotic effect"}, {"compound": "N-methylisosalsoline", "specific proapoptotic effect on adherent U937 cells": "none of these compounds displayed a specific proapoptotic effect"}, {"compound": "NCC(O)c1ccc(O)cc1", "note": "(stereo not shown) [norsynephrine]", "specific proapoptotic effect on adherent U937 cells": "none of these compounds displayed a specific proapoptotic effect"}]}]}
